Experiments:
[1] = system: MCP-1 (monocyte chemoattractant protein 1) expression; test: MCP-1 ELISA (inflammation assay in HAECs); type: cell-based; settings: Endothelial cell; HAEC supernatants; TNFα (0.5 ng/mL) or glycated human serum albumin (300 μg/mL), 18-24 h; read-out: IC50, MCP-1 enzyme-linked immunosorbent assay
Experimental: (§1) For inflammation assays, human aortic endothelial cells (HAECs) in 96 well plates were washed once with treatment medium (basal medium containing 1% FBS). Cells were treated with an inflammatory agent such as TNFα (0.5 ng/mL) or glycated human serum albumin (US Biologicals) as source of advanced glycation end products (AGEs) (300 μg/mL) for 18-24 h in the presence or absence of specified amount of compound. Cell supernatants were collected and used for measuring MCP-1 (monocyte chemoattractant protein 1) or IL-6 (interleukin-6) expression by ELISA. Cell layers were washed and used for determining vascular cell adhesion molecule-1 (VCAM-1) expression.
MCP-1 ELISA was carried out using Quantikine Human MCP-1 kit as described by the manufacturer (R&D Systems, Inc.). Mouse anti-human MCP-1 was used as the capture antibody and HRP (horse radish peroxidase)-conjugated goat anti-human MCP-1 antibody was used as detection antibody. Culture medium was incubated with the capture antibody (in 96-well plate) for 2 h at room temperature. Wells were washed three times with wash buffer (0.05% Tween-20 in PBS) followed by incubation with detection antibody for 2 h at room temperature. Color development was read at […] in a microplate reader.

[2] = system: vascular cell adhesion molecule-1 (VCAM-1) expression; test: VCAM-1 ELISA (inflammation assay in HAECs); type: cell-based; settings: HAEC cell layers; TNFα (0.5 ng/mL) or glycated human serum albumin (300 μg/mL), 18-24 h; read-out: IC50, VCAM-1 enzyme-linked immunosorbent assay
Experimental: as §1
The cells were fixed cells with 100% methanol for 10 min at room temperature. The methanol was removed and the plate was air-dried. 100 μl of 1:1000 diluted primary antibody (polyclonal goat anti-human VCAM-1—R&D Systems #BBA19) was then added and incubated for 2 h at 37 C. The cells were washed with PBS and 100 μl of 1:5000 dilution of secondary antibody (rabbit anti-goat IgG-HRP—Zymed #81-1620) was added and incubated for 1 h at room temperature. Cells were washed and 100 μl of substrate solution (R&D Systems# DY999) was added and incubated for 20 min in the dark at room temp. 50 μl of stop solution (2N sulfuric acid) was added to the wells and absorbency at 450 nm was noted.

[3] = system: human aortic smooth muscle cells; test: Smooth muscle cell proliferation assay; type: cell-based; settings: human aortic SMC, growth medium containing serum, 24 h post treatment; for IC50: read-out: Effect: concentration giving 50% inhibition of smooth muscle cell proliferation
Experimental: Primary cultures of human aortic smooth muscle cells were obtained from Clonetics. SMC were initially grown in T-75 flasks prior to seeding in 96 well plates. The 96-well plates were seeded with 4000 cells/well. The following day cells were washed with serum free medium and left in serum free media for 24 hours for serum starvation. The next day cells received growth medium containing serum with or without compound. The 24 h post treatment cell proliferation was assayed either assessing the incorporation of radiolabeled thymidine to DNA or using a non-radioactive cell proliferation kit from Promega (CellTiter AQ).

[4] = system: IL-6 (interleukin-6) expression; test: IL-6 ELISA (inflammation assay in HAECs); type: cell-based; settings: endothelial cell media; TNFα (0.5 ng/mL) or glycated human serum albumin (300 μg/mL), 18-24 h; read-out: IC50, IL-6 enzyme-linked immunosorbent assay
Experimental: as §1
IL-6 expression in endothelial cell media were determined using DuaSet IL-6 ELISA kit from R&D Systems (Cat No DY206) as described by the manufacturer. Mouse anti-human IL-6 antibody was used as the capture antibody and biotinylated goat anti-human IL-6 was used as detection antibody. Culture medium was incubated with the capture antibody (in 96-well plate) for 2 h at room temperature. Wells were washed three times with wash buffer (0.05% Tween-20 in PBS) followed by incubation with detection antibody for 2 h at room temperature. The wells were then incubated with streptavidin HRP and color development was read at 450 nm in a microplate reader.

Work on `Oc1ccc(-c2nc(-c3ccncc3)nc3ccccc23)c(O)c1` [E 3, 4-(2-Pyridin-4-yl-quinazolin-4-yl)-benzene-1,3-diol] yielded a melting point of 280 to 282 °C.
Work on `Oc1ccc(-c2nc(-c3ccccc3)nc3ccccc23)c(O)c1` [E 4, 4-(2-Phenyl-quinazolin-4-yl)-benzene-1,3-diol] yielded a melting point of 178 to 180 °C.
With `CS(=O)(=O)c1ccc(Nc2cc(-n3ccc(C(F)(F)F)n3)c3ccccc3n2)cc1` [E 23, (4-Methanesulfonyl-phenyl)-[4-(3-trifluoromethyl-pyrazol-1-yl)-quinolin-2-yl]-amine] the IC50 [1] was 9000 nM, the IC50 [2] was 8100 nM and the melting point was 194 to 196 °C.
`CS(=O)(=O)c1ccc(-c2cc(-n3ccc(C(F)(F)F)n3)c3ccccc3n2)cc1` [E 17, 2-(4-Methanesulfonyl-phenyl)-4-(3-trifluoromethyl-pyrazol-1-yl)-quinoline] gave a melting point of 194 to 196 °C.
`CSc1ccc(-c2cc(-n3ccc(C(F)(F)F)n3)c3ccccc3n2)cc1` [E 16, 2-(4-Methylsulfanyl-phenyl)-4-(3-trifluoromethyl-pyrazol-1-yl)-quinoline] showed an IC50 [3] of 1160 nM and a melting point of 116 to 118 °C.
For `COc1ccc(Nc2nc(-c3ccc(F)cc3)cc3ccc(C)cc23)cc1F` [E 7, (3-Fluoro-4-methoxy-phenyl)-[3-(4-fluoro-phenyl)-7-methyl-isoquinolin-1-yl]-amine], the IC50 [1] was 5000 nM and the melting point was 163 to 165 °C.
Molecule `Fc1ccc(-c2cc(-n3ccc(C(F)(F)F)n3)c3ccccc3n2)cc1` [E 11, 2-(4-Fluoro-phenyl)-4-(3-trifluoromethyl-pyrazol-1-yl)-quinoline] has an IC50 [3] of 1000 nM.
In the case of `COc1cc(Nc2cc(-c3ccc(F)cc3)nc3ccccc23)ccc1Cl` [E 13, (4-Chloro-3-methoxy-phenyl)-[2-(4-fluoro-phenyl)-quinolin-4-yl]-amine], the IC50 [1] is reported as 5000 nM, the IC50 [2] is reported as 3500 nM and the melting point is reported as 274 to 276 °C.
Molecule `c1ccc(-c2cc(-n3ccc4ccccc43)c3ccccc3n2)cc1` [E 9, 4-Indol-1-yl-2-phenyl-quinoline] has a melting point of 100 to 102 °C.
`FC(F)(F)c1ccn(-c2cc(-c3ccc4c(c3)OCO4)nc3ccccc23)n1` [E 15, 2-Benzo[1,3]dioxol-5-yl-4-(3-trifluoromethyl-pyrazol-1-yl)-quinoline] showed an IC50 [1] of 4200 nM, an IC50 [2] of 5000 nM and a melting point of 98 to 100 °C.
In the case of `Clc1ccc2c(ccn2-c2cc(-c3ccccc3)nc3ccccc23)c1` [E 10, 4-(5-Chloro-indol-1-yl)-2-phenyl-quinoline], the melting point is reported as 148 to 150 °C.
`FC(F)(F)c1ccn(-c2cc(N3CCOCC3)nc3ccccc23)n1` [E 20, 2-Morpholin-4-yl-4-(3-trifluoromethyl-pyrazol-1-yl)-quinoline] gave a melting point of 118 to 120 °C.
`COc1ccc(Nc2nc(-c3ccncc3)nc3ccccc23)cc1Cl` [E 2, (3-Chloro-4-methoxy-phenyl)-(2-pyridin-4-yl-quinazolin-4-yl)-amine] showed a melting point of over 220 °C.
`CNS(=O)(=O)c1ccc(Nc2cc(-n3ccc(C(F)(F)F)n3)c3ccccc3n2)cc1` [E 21, N-Methyl-4-[4-(3-trifluoromethyl-pyrazol-1-yl)-quinolin-2-ylamino]-benzenesulfonamide] gave an IC50 [1] of 430 nM, an IC50 [2] of 610 nM and a melting point of 220 to 222 °C.
In the case of `CNC(=O)c1ccc(Nc2cc(-n3ccc(C(F)(F)F)n3)c3ccccc3n2)cc1` [E 22, N-Methyl-4-[4-(3-trifluoromethyl-pyrazol-1-yl)-quinolin-2-ylamino]-benzamide], the IC50 [1] is reported as 750 nM, the IC50 [2] is reported as 2100 nM and the melting point is reported as 250 to 252 °C.
Work on `COc1ccc(Nc2cc(-c3ccncc3)nc3ccccc23)cc1Cl` [E 1, (3-Chloro-4-methoxy-phenyl)-(2-pyridin-4-yl-quinolin-4-yl)-amine] yielded a melting point of 280 to 282 °C.
With `FC(F)(F)Oc1ccc(Nc2cc(-n3ccc(C(F)(F)F)n3)c3ccccc3n2)cc1` [E 19, (4-Trifluoromethoxy-phenyl)-[4-(3-trifluoromethyl-pyrazol-1-yl)-quinolin-2-yl]-amine] the IC50 [1] was 1000 nM, the IC50 [2] was 1000 nM and the melting point was 128 to 130 °C.
In the case of `COc1ccc(Nc2nc(-c3ccc(F)cc3)cc3ccc(C)cc23)cc1Cl` [E 6, (3-Chloro-4-methoxy-phenyl)-[3-(4-fluoro-phenyl)-7-methyl-isoquinolin-1-yl]-amine], the melting point is reported as 154 to 156 °C.
`COc1ccc(Nc2cc(-c3ccccc3)nc3ccccc23)cc1Cl` [E 5, (3-Chloro-4-methoxy-phenyl)-(2-phenyl-quinolin-4-yl)-amine] gave an IC50 [4] of 2000 nM and a melting point of 272 to 274 °C.
Molecule `FC(F)(F)Oc1ccc(-c2cc(-n3ccc(C(F)(F)F)n3)c3ccccc3n2)cc1` [E 18, 2-(4-Trifluoromethoxy-phenyl)-4-(3-trifluoromethyl-pyrazol-1-yl)-quinoline] has an IC50 [3] of 2330 nM and a melting point of 108 to 110 °C.
`COc1ccc(Nc2cc(-c3ccc(F)cc3)nc3ccccc23)cc1Cl` [E 8, (3-Chloro-4-methoxy-phenyl)-[2-(4-fluoro-phenyl)-quinolin-4-yl]-amine] showed an IC50 [1] of 2100 nM, an IC50 [2] of 3600 nM and an inhibition at 1 µM ([3]; at 1 μM, read-out: Effect: % inhibition of smooth muscle cell proliferation) of 77%. It also gave a melting point of 260 °C.

From US20060128702A1, “Heterocyclic and bicyclic compounds, compositions and methods” (priority 2004, published 2006)
